In US20040235086A1, “Detection of cellular contaminants in samples of non-living material” (priority 2001, published 2004):

Tests used:
Hepatocyte cells = assay: Microcalorimetric detection of heat production on uncoupling of oxidative phosphorylation in hepatocytes; format: cell-based
Description: Hepatocyte cells were grown on 37 degrees Celsius with 5% CO2, Rinsed with Versene, then loosened with EDTA-trypsine and washed with PBS. Concentration was 1,88. 10e7 cells/ml or about 28 000 cells in a well.
The uncoupler CCCF was dissolved in DMSO to a stock concentration of 100 mM, the diluted to 10 mM again in DMSO, and a final working concentration of 400 μM was diluted in H2O.
A sample of hepatocytes was introduced in the adjoining recipients (hereinafter referred to as top and bottom well) of a microcalorimeter. The thermopile, which is located between the two recipients allows the measurement of a minute temperature difference between the samples in each recipient by measuring a voltage difference. Sensitivity was determined to be 15 mV/K (10.7 V/W). The following procedure was used:
adding of 1.5 μl of hepatocyte solution was added to the top and bottom well of the microcalorimeter
0.5 μl of a 100 μM solution of uncoupler was added to the bottom well, while the same volume of the buffer solution was added to the top well
At its maximum (reached after 10 min), the voltage difference between the two wells was recorded. From this value, the temperature difference and the heat production difference could be determined.

[1] = tested on: Escherichia coli bacteria
Description: The presence of living cells, including bacterial cells, in a sample can be detected by addition of hydrogen peroxide which will be degraded by catalase activity present in the cells, which causes heat production.
Escherichia coli bacteria were grown on 37° Celsius in Liquid Broth. Samples of bacteria are taken when growth is in the log fase and is estimated to be around 4.10e8 bacteria/ml, which corresponds to around 600 000 bacteria per well.
A 30% (w/w) hydrogen peroxide solution from Sigma was used directly.
Measurements were performed using a microcalorimeter. The top well was provided with 1.5 μl of the bacterial solution in LB, while the bottom well contained 1.5 μl LB only.
When a steady baseline was obtained (10 min) 0.5 μl of the hydrogen peroxide solution was added to each of the wells.

| Structure (SMILES) | maximum voltage difference between the two wells (Hepatocyte cells; 0.5 μl of 100 μM uncoupler solution added to 1.5 μl hepatocyte solution (about 28 000 cells/well), maximum reached after 10 min, vs buffer well) | heat production difference per cell (Hepatocyte cells; hepatocytes, based on number of cells added to each well) | temperature difference (voltage difference divided by sensitivity of the microcalorimeter) (Hepatocyte cells; hepatocytes, uncoupler well vs buffer well, sensitivity 15 mV/K) | maximum temperature difference ([1]; 0.5 μl of 30% (w/w) hydrogen peroxide added to 1.5 μl E. coli in LB (around 600 000 bacteria per well) vs LB only) | total enthalpy change ([1]; calculated from Tmax=ΔH/2C, heat capacity 10 mJ/K after addition of hydrogen peroxide) |
| --- | --- | --- | --- | --- | --- |
| N#CC(C#N)=NNc1cccc(Cl)c1 [CCCF, carbonylcyanide-3-chlorophenylhydrazone] | 800 μV | 3 nW | 50 mK |  |  |
| OO [hydrogen peroxide] |  |  |  | 400 mK | 80 mJ |
